Our source for the IC50 and inhibition values is ChEMBL document CHEMBL4699484, “Discovery of small molecule FLT3 inhibitors that are able to overcome drug-resistant mutations” (Bioorg Med Chem Lett, 2020).

Assay [1] has as its target T1, Receptor-type tyrosine-protein kinase FLT3 (Homo sapiens, UniProt P36888, ITD). Format: cell-based, BaF3.
Description: Inhibition of FLT3 ITD mutant (unknown origin) expressed in mouse BaF3 cells
Assay [2] deals with Receptor-type tyrosine-protein kinase FLT3 (Homo sapiens, UniProt P36888, D835Y/ITD). Format: cell-based, BaF3.
Description: Inhibition of FLT3 ITD/D835Y double mutant (unknown origin) expressed in mouse BaF3 cells
Assay [3] addresses Receptor-type tyrosine-protein kinase FLT3 (Homo sapiens, UniProt P36888, F691L/ITD). It counts as cell-based, BaF3.
Description: Inhibition of FLT3 ITD/F691L double mutant (unknown origin) expressed in mouse BaF3 cells
For assay [4], the system named is BaF3. The assay is described as follows: cells. To be noted: Mus musculus.
Description: Cytotoxicity against mouse BaF3 cells assessed as reduction in cell viability
Assay [5] concerns the target T1, Receptor-type tyrosine-protein kinase FLT3. The assay is described as follows: Inhibition of human partial length FLT3 ITD mutant expressed in bacterial expression system by Kinomescan method.
Assay [6] has as its system STF3A. Description: (§1) Inhibition of Wnt/beta-Catenin signaling (unknown origin) expressed in STF3a cells incubated for 24 hrs by STF luciferase reporter gene assay. It counts as cell-based. To be noted: Homo sapiens.
Assay [7] can be described thus: as §1. It counts as cell-based. To be noted: Homo sapiens.

SMILES strings stand for the structures.

Broadly, the IC50 is the concentration needed to halve the response being measured. A lower IC50 goes with inhibition by little substance.

As to `CCOc1cc2nccc(Oc3ccc(NC(=O)Nc4cc(C(C)(C)C)on4)cc3F)c2cc1OC`, the half-inhibitory concentration (IC50) was found to be 5.2 nM in assay [1], 5.96 nM in assay [2], 8.31 nM in assay [3] and 1650 nM in assay [4].
For `COCCOc1cc2nccc(Oc3ccc(NC(=O)Nc4cc(C(C)(C)C)on4)cc3F)c2cc1OCCOC` the same measures were 5.17 nM, 11 nM, 16 nM and 2000 nM.
Turning to `COCCOc1cc2c(Oc3ccc(NC(=O)Nc4cc(C(C)(C)C)on4)cc3F)ccnc2cc1OC`, the 50% inhibitory concentration (IC50) in assay [1] is 4.91 nM; in assay [2], 10.1 nM; in assay [3], 20.8 nM; in assay [4], 3000 nM.
On to `CC(C)(C)c1cc(NC(=O)Nc2ccc(Oc3ccnc4cc(OCC5CCCC5)c(OCC5CCCC5)cc34)c(F)c2)no1`, for which the IC50 worked out at 37.2 nM in assay [1], 27.9 nM in assay [2], 38.9 nM in assay [3] and 6500 nM in assay [4].
On to `CC(C)(C)c1cc(NC(=O)Nc2ccc(Oc3ccnc4[nH]ncc34)c(F)c2)no1`, for which the IC50 in assay [1] worked out at 0.292 nM; in assay [2], 34.3 nM; in assay [3], 35 nM; in assay [4], 2620 nM.
Consider `CC(C)(C)c1cc(NC(=O)Nc2ccc(Oc3ncnc4[nH]ncc34)c(F)c2)no1`, for which the IC50 is 0.038 nM in assay [1]; 1.3 nM in assay [5]; 130 nM in assay [2]; 108 nM in assay [3]; 3160 nM in assay [4].
Regarding `CCCOc1cc2c(Oc3ccc(NC(=O)Nc4cc(C(C)(C)C)on4)cc3F)ccnc2cc1OC`, the IC50 is 76.1 nM in assay [1], 160 nM in assay [2], 296 nM in assay [3] and 7770 nM in assay [4].
As for `COc1cc2ncnc(Oc3ccc(NC(=O)Nc4cc(C(C)(C)C)on4)cc3F)c2cc1OC`, the half-inhibitory concentration (IC50) in assay [1] was 1.51 nM; in assay [2], 7.93 nM; in assay [3] it was 13.8 nM; in assay [4] it was more than 1990 nM.
With `COCCOc1cc2nccc(Oc3ccc(NC(=O)Nc4cc(C(C)(C)C)on4)cc3F)c2cc1OC`, the IC50 in assay [1] is 4.73 nM; in assay [2], 5.35 nM; in assay [3], 11.9 nM; in assay [4], 1130 nM.
In the case of `COc1cc2nccc(Oc3ccc(NC(=O)Nc4cc(C(C)(C)C)on4)cc3F)c2cc1OCCCN1CCOCC1`, the half-inhibitory concentration (IC50) in assay [1] is 5.77 nM; in assay [2], 6.28 nM; in assay [3], 16.8 nM; in assay [4], 1840 nM.
For the compound `CC(C)(C)c1cc(NC(=O)Nc2ccc(Oc3ccnc4nc[nH]c34)c(F)c2)no1`, the IC50 in assay [1] was found to be 0.015 nM; in assay [2], 12.4 nM; in assay [3] it was 18.6 nM; in assay [4], 2080 nM.
For `COc1cc2c(Oc3ccc(NC(=O)Nc4cc(C(C)(C)C)on4)cc3F)ccnc2cc1OCC1CO1` (stereo not given), the IC50 in assay [1] stood at 2650 nM; in assay [2], 3540 nM; in assay [3], 5270 nM; in assay [4], 9200 nM.
As to `COc1cc2nccc(Oc3ccc(NC(=O)Nc4cc(C(C)(C)C)on4)cc3F)c2cc1OC(C)C`, the IC50 in assay [1] amounted to 6.88 nM; in assay [2], 10.6 nM; in assay [3], 23.1 nM; in assay [4] it was 2030 nM.
Consider `CC(C)(C)c1cc(NC(=O)Nc2ccc(Oc3ccnc4[nH]ccc34)c(F)c2)no1`, for which the IC50 in assay [1] is 141 nM; in assay [2], 741 nM; in assay [3], 1020 nM; in assay [4], more than 10000 nM.
For `COc1cc2c(Oc3ccc(NC(=O)Nc4cc(C(C)(C)C)on4)cc3F)ncnc2cn1`, the IC50 is 1.2 nM in assay [1], 64.2 nM in assay [2], 1020 nM in assay [3] and 3040 nM in assay [4].
On to `CCCOc1cc2nccc(Oc3ccc(NC(=O)Nc4cc(C(C)(C)C)on4)cc3F)c2cc1OC`, for which the IC50 in assay [1] came to 19.2 nM; in assay [2] it was 14.9 nM; in assay [3] it was 54.3 nM; in assay [4] it was 4940 nM.
As for `CCOc1cc2c(Oc3ccc(NC(=O)Nc4cc(C(C)(C)C)on4)cc3F)ccnc2cc1OC`, the IC50 in assay [1] is 7.25 nM; in assay [2], 10.9 nM; in assay [3] it was 29.9 nM; in assay [4] it was 2880 nM.
Consider `CCOc1cc2nccc(Oc3ccc(NC(=O)Nc4cc(C(C)(C)C)on4)cc3F)c2cc1OCC`, for which the IC50 in assay [1] was 3.08 nM; in assay [2], 15.5 nM; in assay [3], 32.6 nM; in assay [4] it was 3140 nM.
Regarding `COc1cc2c(Oc3ccc(NC(=O)Nc4cc(C(C)(C)C)on4)cc3F)ccnc2cc1OCC(C)C`, the half-inhibitory concentration (IC50) in assay [1] came to 36.5 nM; in assay [2], 62.4 nM; in assay [3] it was 127 nM; in assay [4] it was 4820 nM.
Turning to `COc1cc2nccc(Oc3ccc(NC(=O)Nc4cc(C(C)(C)C)on4)cc3F)c2cc1OC`, the inhibition result in assay [6] was “Dose-dependent effect”. For the same compound, the half-inhibitory concentration (IC50) was less than 500 nM in assay [7]; 0.072 nM in assay [1]; 3.48 nM in assay [2]; 5.86 nM in assay [3]; 1210 nM in assay [4].
For the compound `CC(C)(C)c1cc(NC(=O)Nc2ccc(Oc3nccc4ccccc34)c(F)c2)no1`, the IC50 in assay [1] is 1260 nM; in assay [2], more than 10000 nM; in assay [3] it was more than 10000 nM; in assay [4] it was more than 10000 nM.
As to `COc1cc2c(Oc3ccc(NC(=O)Nc4cc(C(C)(C)C)on4)cc3F)ccnc2cc1OCCCN1CCOCC1`, the IC50 worked out at 3.22 nM in assay [1], 5.09 nM in assay [2], 9.93 nM in assay [3] and 1100 nM in assay [4].
Take `COc1cc2c(Oc3ccc(NC(=O)Nc4cc(C(C)(C)C)on4)cc3F)ccnc2cc1OCC1CCCC1`: the IC50 in assay [1] was found to be 66.5 nM; in assay [2] it was 104 nM; in assay [3], 189 nM; in assay [4], 5560 nM.
